Experimental data published in US20230382924A1, “MODULATORS OF CYSTIC FIBROSIS TRANSMEMBRANE CONDUCTANCE REGULATOR” (VERTEX PHARMACEUTICALS INCORPORATED, priority 2020, published 2023).
Where two headings read alike, the source gives them in different places.

Target: CFTR (Homo sapiens, UniProt P13569)
Assay: Membrane Potential Dye, Enteroid Assay A
Type: cell-based
Conditions: for EC50: read-out: Ent. A EC50
Outline: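 Signal is reported as % Activity relative to a triple CFTR modulator control (3 μM + 3 μM + 300 nM acute). Read-out: membrane potential fluorescence (20 μM methyl oxonol) monitored for 15 min after chloride-free stimulation. Dye loading took 25 min at room temperature in Bath 1 buffer containing CaCC blockers.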

Sequence of CFTR (P13569 with tags, fused parts or gaps DEL508-508): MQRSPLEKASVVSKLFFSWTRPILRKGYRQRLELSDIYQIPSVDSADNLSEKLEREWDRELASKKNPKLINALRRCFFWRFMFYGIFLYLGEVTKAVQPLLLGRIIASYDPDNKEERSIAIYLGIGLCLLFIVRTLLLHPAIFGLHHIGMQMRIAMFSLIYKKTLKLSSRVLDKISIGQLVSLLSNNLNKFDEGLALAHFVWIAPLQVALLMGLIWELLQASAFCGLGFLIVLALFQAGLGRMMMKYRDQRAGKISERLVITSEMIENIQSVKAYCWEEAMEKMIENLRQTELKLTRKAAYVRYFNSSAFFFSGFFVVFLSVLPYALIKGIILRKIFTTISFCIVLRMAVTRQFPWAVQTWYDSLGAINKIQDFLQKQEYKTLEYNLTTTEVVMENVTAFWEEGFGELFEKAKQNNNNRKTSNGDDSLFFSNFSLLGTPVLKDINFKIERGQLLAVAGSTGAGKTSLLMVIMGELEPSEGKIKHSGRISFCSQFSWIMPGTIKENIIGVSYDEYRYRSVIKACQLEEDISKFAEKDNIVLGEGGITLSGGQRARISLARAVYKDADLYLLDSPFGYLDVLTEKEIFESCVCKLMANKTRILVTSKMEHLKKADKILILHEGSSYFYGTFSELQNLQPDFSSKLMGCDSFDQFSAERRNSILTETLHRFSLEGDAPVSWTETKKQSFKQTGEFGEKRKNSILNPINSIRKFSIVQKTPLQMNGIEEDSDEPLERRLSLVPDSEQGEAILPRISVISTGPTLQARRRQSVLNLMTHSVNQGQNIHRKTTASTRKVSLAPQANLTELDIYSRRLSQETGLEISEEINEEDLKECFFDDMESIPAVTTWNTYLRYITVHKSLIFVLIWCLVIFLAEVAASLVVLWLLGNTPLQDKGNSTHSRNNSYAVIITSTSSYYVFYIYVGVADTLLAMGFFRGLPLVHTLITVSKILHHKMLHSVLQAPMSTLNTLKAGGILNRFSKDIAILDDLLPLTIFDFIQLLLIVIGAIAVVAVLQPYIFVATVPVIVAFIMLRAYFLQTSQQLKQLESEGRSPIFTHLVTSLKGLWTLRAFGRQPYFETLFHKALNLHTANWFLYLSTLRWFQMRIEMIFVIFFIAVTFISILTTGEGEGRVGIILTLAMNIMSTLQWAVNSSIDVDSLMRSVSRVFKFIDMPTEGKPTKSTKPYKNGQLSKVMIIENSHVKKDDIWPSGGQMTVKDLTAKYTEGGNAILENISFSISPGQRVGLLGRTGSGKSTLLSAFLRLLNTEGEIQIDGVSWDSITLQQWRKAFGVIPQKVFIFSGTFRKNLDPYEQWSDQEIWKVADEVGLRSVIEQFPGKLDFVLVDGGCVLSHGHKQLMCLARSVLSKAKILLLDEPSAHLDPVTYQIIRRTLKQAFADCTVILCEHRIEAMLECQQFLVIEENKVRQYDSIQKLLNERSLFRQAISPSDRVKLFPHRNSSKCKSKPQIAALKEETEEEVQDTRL

Ent. A Max Activity (Table 9) | EC50 (Table 9) [nM] | Ent. A Max Activity (Table 8) | EC50 (Table 8) [nM] | SMILES | also measured
+++ (+++ is >60%) | 1000 to 3000 | – | – | Cc1cccc(C)c1-c1cc2nc(n1)NS(=O)(=O)c1cccc(c1)C(=O)NC1(CCN(C3CC4(CC4)C3)CC1)CO2 [Compound 174] | –
+ (+ is <30%) | 3000 to 30000 | – | – | Cc1cccc(C)c1-c1cc2nc(n1)NS(=O)(=O)c1cccc(c1)C(=O)NC1(CCN(C(C)C)CC1)CO2 [Compound 175] | –
+++ (+++ is >60%) | < 1000 | – | – | Cc1cccc(C)c1-c1cc2nc(n1)NS(=O)(=O)c1cccc(c1)C(=O)NC(C)(CC(C)C)CO2 (stereo not drawn) [Compound 176] | –
+ (+ is <30%) | – | – | – | CC(C)C[C@@H]1COc2cc(-c3ncccn3)nc(n2)NS(=O)(=O)c2cccc(c2)C(=O)N1 [Compound 178] | –
++ (++ is 30-60%) | 3000 to 30000 | – | – | Cc1cnn(C)c1-c1cc2nc(n1)NS(=O)(=O)c1cccc(c1)C(=O)N[C@H](CC(C)C)CO2 [Compound 179] | –
+++ (+++ is >60%) | < 1000 | – | – | CCCC1(CCC)COc2cc(-c3c(C)cccc3C)nc(n2)NS(=O)(=O)c2cccc(c2)C(=O)N1 [Compound 184] | –
+++ (+++ is >60%) | < 1000 | – | – | CCCCC1(CCCC)COc2cc(-c3c(C)cccc3C)nc(n2)NS(=O)(=O)c2cccc(c2)C(=O)N1 [Compound 185] | –
– | – | +++ (+++ is >60%) | 3000 to 30000 | Cc1cccc(C)c1-c1cc2nc(n1)NS(=O)(=O)c1cccc(c1)C(=O)NC(CCC1CCOCC1)CO2 (stereo not drawn) [Compound 186] | –
– | – | +++ (+++ is >60%) | < 1000 | Cc1cccc(C)c1-c1cc2nc(n1)NS(=O)(=O)c1cccc(c1)C(=O)N[C@H](CC1CCC(F)(F)CC1)CO2 [Compound 187] | –
– | – | +++ (+++ is >60%) | < 1000 | Cc1cccc(C)c1-c1cc2nc(n1)NS(=O)(=O)c1cccc(c1)C(=O)NC(CC1CCCC1)CO2 (stereo not drawn) [Compound 188] | –
– | – | – | – | Cc1cccc(C)c1-c1cc2nc(n1)NS(=O)(=O)c1cccc(c1)C(=O)NC1CC(CN(CCC3(C(F)(F)F)CC3)C1)O2 (stereo not drawn) [Compound 194] | EC50 (Enteroid Assay A): 1000 to 3000 nM
– | – | – | – | Cc1cccc(C)c1-c1cc2nc(n1)NS(=O)(=O)c1cccc(c1)C(=O)NC1CC(CN(CCC(C)(C)C3CC3)C1)O2 (stereo not drawn) [Compound 195] | EC50 (Enteroid Assay A): < 1000 nM
– | – | – | – | Cc1cccc(C)c1-c1cc2nc(n1)NS(=O)(=O)c1cccc(c1)C(=O)NCc1cccc(c1)O2 [Compound 197] | Ent. A Max Activity (Enteroid Assay A): ++ (++ is 30-60%); EC50 (Enteroid Assay A): 3000 to 30000 nM
– | – | – | – | Cc1cccc(C)c1-c1cc2nc(n1)NS(=O)(=O)c1cccc(c1)C(=O)NC1CC(CN(C(=O)OCc3ccccc3)C1)O2 (stereo not drawn) [Compound 200] | Ent. A Max Activity (Enteroid Assay A): ++ (++ is 30-60%); EC50 (Enteroid Assay A): 3000 to 30000 nM
– | – | – | – | Cc1cccc(C)c1-c1cc2nc(n1)NS(=O)(=O)c1cccc(c1)C(=O)NCC(c1ccccc1)CO2 (stereo not drawn) [Compound 201] | EC50 (Enteroid Assay A): < 1000 nM
– | – | – | – | Cc1cccc(C)c1-c1cc2nc(n1)NS(=O)(=O)c1cccc(c1)C(=O)NCC1(CCCCC1)CO2 [Compound 205] | Ent. A Max Activity (Enteroid Assay A): +++ (+++ is >600%); EC50 (Enteroid Assay A): < 1000 nM
+ (+ is <30%) | – | – | – | Cc1cccc(C)c1-c1cc2nc(n1)NS(=O)(=O)c1ccccc1C(=O)NCC(c1ccc(C(C)(C)C)cc1)O2 (stereo not drawn) [Compound 222] | –
+ (+ is <30%) | – | – | – | Cc1cccc(C)c1-c1cc2nc(n1)NS(=O)(=O)c1ccccc1C(=O)NC(CC(C)C)CO2 (stereo not drawn) [Compound 223] | –
++ (++ is 30-60%) | 1000 to 3000 | – | – | Cc1cccc(C)c1-c1cc2nc(n1)NS(=O)(=O)c1cccc(c1)C(=O)N[C@@H](CC(C)C)CCO2 [Compound 224] | –
+++ (+++ is >60%) | < 1000 | – | – | Cc1cccc(C)c1-c1cc2nc(n1)NS(=O)(=O)c1cccc(c1)C(=O)N[C@H](CC(C)C)CCO2 [Compound 225] | –
+++ (+++ is >60%) | < 1000 | – | – | CCC[C@H]1NC(=O)c2cccc(c2)S(=O)(=O)Nc2nc(cc(-c3c(C)cccc3C)n2)O[C@H]1c1ccc(C(C)(C)C)cc1 [Compound 226] | –
+++ (+++ is >60%) | < 1000 | – | – | CCC[C@H]1NC(=O)c2cccc(c2)S(=O)(=O)Nc2nc(cc(-c3c(C)cccc3C)n2)O[C@@H]1c1ccc(C(C)(C)C)cc1 [Compound 227] | –
+ (+ is <30%) | < 1000 | – | – | Cc1cccc(C)c1-c1cc2nc(n1)NS(=O)(=O)c1cccc(c1)C(=O)N[C@@H](C)[C@H](c1ccc(C(C)(C)C)cc1)O2 [Compound 228] | –
– | – | – | < 1000 | Cc1cccc(C)c1-c1cc2nc(n1)NS(=O)(=O)c1cccc(c1)C(=O)NCC(c1ccc(-c3ccccc3)cc1)O2 (stereo not drawn) [Compound 231] | –
– | – | + (+ is <30%) | – | Cc1cccc(C)c1-c1cc2nc(n1)NS(=O)(=O)c1cccc(c1)C(=O)NC[C@@H](c1ccccn1)O2 [Compound 232] | –
– | – | + (+ is <30%) | – | Cc1cccc(C)c1-c1cc2nc(n1)NS(=O)(=O)c1cccc(c1)C(=O)NC[C@@H](c1ccccn1)O2 [Compound 233] | –
– | – | + (+ is <30%) | – | Cc1cccc(C)c1-c1cc2nc(n1)NS(=O)(=O)c1cccc(c1)C(=O)NCC(c1ccccn1)O2 (stereo not drawn) [Compound 234] | –

Ent. A Max Activity (Table 9) | EC50 (Table 9) [nM] | Ent. A Max Activity (Table 8) | EC50 (Table 8) [nM] | SMILES | also measured
– | – | +++ (+++ is >60%) | < 1000 | Cc1cccc(C)c1-c1cc2nc(n1)NS(=O)(=O)c1cccc(c1)C(=O)N[C@H](CC(C)C)[C@H](C)O2 [Compound 235] | –
– | – | + (+ is <30%) | – | Cc1cccc(C)c1-c1cc2nc(n1)NS(=O)(=O)c1cccc(c1)C(=O)NC(C(=O)NCc1ccccc1)CO2 (stereo not drawn) [Compound 236] | –
– | – | + (+ is <30%) | – | Cc1cccc(C)c1-c1cc2nc(n1)NS(=O)(=O)c1cccc(c1)C(=O)NC(C(=O)NC1CCCCC1)CO2 (stereo not drawn) [Compound 237] | –
– | – | +++ (+++ is >60%) | 1000 to 3000 | Cc1cccc(C)c1-c1cc2nc(n1)NS(=O)(=O)c1cccc(c1)C(=O)N[C@H](CC(C)C)C(C1CC1)O2 (stereo partly drawn) [Compound 238] | –
++ (++ is 30-60%) | 3000 to 30000 | – | – | Cc1cccc(C)c1-c1cc2nc(n1)NS(=O)(=O)c1cccc(c1)CN[C@H](CC(C)C)CO2 [Compound 240] | –
– | – | +++ (+++ is >60%) | < 1000 | Cc1cccc(C)c1-c1cc2nc(n1)NS(=O)(=O)c1cccc(c1)C(=O)NCC(Cc1ccc(C(C)(C)C)cc1)O2 (stereo not drawn) [Compound 241] | –
– | – | – | < 1000 | Cc1cccc(C)c1-c1cc2nc(n1)NS(=O)(=O)c1cccc(c1)C(=O)NCC(Cc1ccc(C(C)(C)C)cc1)O2 (stereo not drawn) [Compound 242] | –
– | – | +++ (+++ is >60%) | < 1000 | Cc1cccc(C)c1-c1cc2nc(n1)NS(=O)(=O)c1cccc(c1)C(=O)NCC(Cc1ccc(C(C)(C)C)cc1)O2 (stereo not drawn) [Compound 243] | –
– | – | – | < 1000 | Cc1cccc(C)c1-c1cc2nc(n1)NS(=O)(=O)c1cccc(c1)C(=O)NCC(C13CC4CC(CC(C4)C1)C3)O2 (stereo not drawn) [Compound 244] | –
– | – | – | 3000 to 30000 | Cc1cccc(C)c1-c1cc2nc(n1)NS(=O)(=O)c1cccc(c1)C(=O)NCC(c1ccc(C(C)(C)O)cc1)O2 (stereo not drawn) [Compound 245] | –
– | – | +++ (+++ is >60%) | < 1000 | Cc1cccc(C)c1-c1cc2nc(n1)NS(=O)(=O)c1cccc(c1)C(=O)NCC(c1cccc(C(C)(C)C)c1)O2 (stereo not drawn) [Compound 247] | –
– | – | +++ (+++ is >60%) | < 1000 | Cc1cccc(C)c1-c1cc2nc(n1)NS(=O)(=O)c1cccc(c1)C(=O)NCC(C1CCN(C(=O)OC(C)(C)C)CC1)O2 (stereo not drawn) [Compound 248] | –
– | – | – | < 1000 | Cc1cccc(C)c1-c1cc2nc(n1)NS(=O)(=O)c1cccc(c1)C(=O)NCC(c1ccc(OC(C)C)cc1)O2 (stereo not drawn) [Compound 249] | –
– | – | +++ (+++ is >60%) | < 1000 | Cc1cccc(C)c1-c1cc2nc(n1)NS(=O)(=O)c1cccc(c1)C(=O)NCC(c1ccc(C#N)cc1)O2 (stereo not drawn) [Compound 250] | –
– | – | +++ (+++ is >60%) | < 1000 | Cc1cccc(C)c1-c1cc2nc(n1)NS(=O)(=O)c1cccc(c1)C(=O)NCC(c1ccc(Cl)cc1)O2 (stereo not drawn) [Compound 251] | –
– | – | – | 3000 to 30000 | Cc1cccc(C)c1-c1cc2nc(n1)NS(=O)(=O)c1cccc(c1)C(=O)NCC(c1cccc(C#N)c1)O2 (stereo not drawn) [Compound 252] | –
– | – | +++ (+++ is >60%) | < 1000 | Cc1cccc(C)c1-c1cc2nc(n1)NS(=O)(=O)c1cccc(c1)C(=O)NCC(c1ccc3ccccc3c1)O2 (stereo not drawn) [Compound 253] | –
– | – | + (+ is <30%) | – | Cc1cccc(C)c1-c1cc2nc(n1)NS(=O)(=O)c1cccc(c1)C(=O)NC[C@@H](CC(C)C)O2 [Compound 254] | –
– | – | – | 1000 to 3000 | Cc1cccc(C)c1-c1cc2nc(n1)NS(=O)(=O)c1cccc(c1)C(=O)NCC(CC(C)C)O2 (stereo not drawn) [Compound 255] | –
+++ (+++ is >60%) | < 1000 | – | – | Cc1cccc(C)c1-c1cc2nc(n1)NS(=O)(=O)c1cccc(c1)C(=O)NC[C@@H](c1ccc(C(C)(C)C(F)(F)F)cc1)O2 [Compound 256] | –
+ (+ is <30%) | < 1000 | – | – | Cc1cccc(C)c1-c1cc2nc(n1)NS(=O)(=O)c1cccc(c1)C(=O)NC[C@@H](c1ccc(C(C)(C)C(F)(F)F)cc1)O2 [Compound 257] | –
+++ (+++ is >60%) | < 1000 | – | – | CCC(CC)(CC)c1ccc([C@@H]2CNC(=O)c3cccc(c3)S(=O)(=O)Nc3nc(cc(-c4c(C)cccc4C)n3)O2)cc1 [Compound 258] | –
+ (+ is <30%) | < 1000 | – | – | CCC(CC)(CC)c1ccc([C@@H]2CNC(=O)c3cccc(c3)S(=O)(=O)Nc3nc(cc(-c4c(C)cccc4C)n3)O2)cc1 [Compound 259] | –
+++ (+++ is >60%) | < 1000 | – | – | Cc1cccc(C)c1-c1cc2nc(n1)NS(=O)(=O)c1cccc(c1)C(=O)NC[C@@H](c1ccc(C3CC3)cc1)O2 [Compound 260] | –
++ (++ is 30-60%) | 1000 to 3000 | – | – | Cc1cccc(C)c1-c1cc2nc(n1)NS(=O)(=O)c1cccc(c1)C(=O)NC[C@@H](c1ccc(C3CC3)cc1)O2 [Compound 261] | –
+++ (+++ is >60%) | < 1000 | – | – | Cc1cccc(C)c1-c1cc2nc(n1)NS(=O)(=O)c1cccc(c1)C(=O)NC[C@@H](c1ccc(C(C)(C)C(F)(F)F)cc1)O2 [Compound 262] | –
